Measurements: patent US4701465A, “N-acylpyrrolidine derivative and synthesis and use thereof” (Suntory Limited, priority 1985, dated 1987)

Tests used:
[1] = test system: experimental amnesia caused in rats by scopolamine; test: Preventive effect against experimental amnesia caused in rats by scopolamine (passive avoidance learning, intraperitoneal administration); type: in vivo, Wister male rats; conditions: 1 mg/kg i.p.; for preventive effect against scopolamine amnesia (in words): rats; for No. of amnesic rats/No. of rats tested / percentage amnesia / Avoidance time 24 hrs. later / Avoidance time 48 hrs. later: scopolamine 3 mg/kg i.p. after learning
Description: Several of the anti-prolyl endopeptidase compounds of the present invention were checked for their ability to prevent the inhibition of long-term memory fixation by scopolamine. Solutions of physiological saline that contained selected compounds of the present inventions in an amount of 1 mg/kg were administered intraperitoneally to Wister male rats (100-120 g). One hour after the administration, electric shocks were applied to the rats so that they would acquire passive avoidance learning. Immediately thereafter, scopolamine was administered intraperitoneally to each rat in an amount of 3 mg per kg of body weight.
The result of the test was assessed both 24 hours and 48 hours after the administration of scopolamine. The number of amnesic rats and of sound rats was counted for both the control group (rats which were not given the test compounds but to which scopolamine and physiological saline alone were administered intraperitoneally) and the treated group (rats to which both the test compound and scopolamine were administered).

prolyl endopeptidase = prolyl endopeptidase (Elizabethkingia meningoseptica, UniProt P27028); test: Measurement of anti-prolyl endopeptidase activity; type: biochemical; conditions: substrate Z-glycyl-proline-β-naphthylamide, 0.1M phosphate buffer pH 7.06, absorbance at 410 nm
Description: The method of Yoshimoto and Tsuru (T. Yoshimoto and D. Tsuru, Agr. Biol. Chem. 42, 2417, 1978) was used to measure the anti-prolyl endopeptidase activities of compounds of the present invention. A mixture of 0.0025M Z-glycyl-proline-β-naphthylamide (0.25 ml), 0.1M phosphate buffer (pH, 7.06; 0.99 ml) and a solution of a particular anti-prolyl endopeptidase compound (0.01 ml) was incubated in a test tube at 37° C. for 3 minutes. Thereafter, 0.1 ml of a solution of prolyl endopeptidase (0.2 U/ml) was added and the mixture was heated at 35° C. for 10 minutes. After the reaction, 2.0 ml of Triton X-100 in 1M acetate buffer (pH, 4.0) was added to the reaction mixture until the final concentration of the surfactant was 10%. The mixture was left at room temperature for 15 minutes and the absorbance (a) at 410 nm was measured.
A sample for a blind test was prepared by using the buffer instead of the anti-prolyl endopeptidase compound and its absorbance (b) was also measured. The percent inhibition of prolyl endopeptidase was calculated by the formula: ((b-a)/b)×100, and the amount of a specific compound to achieve 50% inhibition IC50) was determined.

prolyl endopeptidase, sequence (P27028 21-705): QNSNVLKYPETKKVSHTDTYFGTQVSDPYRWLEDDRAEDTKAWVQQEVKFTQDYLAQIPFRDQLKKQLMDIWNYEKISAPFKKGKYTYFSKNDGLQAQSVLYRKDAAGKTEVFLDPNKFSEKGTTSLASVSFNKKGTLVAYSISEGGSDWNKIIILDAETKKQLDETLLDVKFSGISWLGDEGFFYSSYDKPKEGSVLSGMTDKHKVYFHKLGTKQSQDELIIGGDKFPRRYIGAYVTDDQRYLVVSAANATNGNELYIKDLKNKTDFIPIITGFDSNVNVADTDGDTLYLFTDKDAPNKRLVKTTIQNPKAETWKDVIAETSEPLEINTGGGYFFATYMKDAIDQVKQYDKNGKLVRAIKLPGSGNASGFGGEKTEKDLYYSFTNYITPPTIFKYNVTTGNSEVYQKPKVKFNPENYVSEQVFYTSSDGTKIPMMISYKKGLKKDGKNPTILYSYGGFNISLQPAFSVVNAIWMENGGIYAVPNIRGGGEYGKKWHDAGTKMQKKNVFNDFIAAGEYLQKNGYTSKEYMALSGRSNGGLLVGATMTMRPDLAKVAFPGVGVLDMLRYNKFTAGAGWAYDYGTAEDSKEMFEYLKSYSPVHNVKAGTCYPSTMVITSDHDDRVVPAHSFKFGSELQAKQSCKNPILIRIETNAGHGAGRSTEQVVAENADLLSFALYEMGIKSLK

**Q.** Which results are given for COc1ccc(CCCC(=O)N2CCCC2C=O)cc1 (centres unmarked) [SUAM1051]?
**A.** preventive effect against scopolamine amnesia (in words) [1]: particularly remarkable effects; No. of amnesic rats/No. of rats tested [1]: 0/10; percentage amnesia [1]: 0%; Avoidance time 24 hrs. later [1]: 300.0 s; Avoidance time 48 hrs. later [1]: 300.0 s

**Q.** With O=CC1CCCN1C(=O)Cc1ccc(Cl)cc1 (centres unmarked) [SUAM1052] as the molecule, how does the “No. of amnesic rats/No. of rats tested” value [1] read?
**A.** Its value is 3/10.

**Q.** What about the percentage amnesia [1] of the same molecule?
**A.** Its percentage amnesia is 30%.

**Q.** And the “Avoidance time 24 hrs. later” value [1]?
**A.** The value was 223.1 s.

**Q.** What about the “Avoidance time 48 hrs. later” value [1] of the same molecule?
**A.** The value was 214.8 s.

**Q.** COC(=O)C1CCCN1C(=O)CCCc1ccc(Cl)cc1 (centres unmarked) [compound 12] was tested. Which “IC50 (amount of compound to achieve 50% inhibition of prolyl endopeptidase)” value (prolyl endopeptidase) did it give?
**A.** Its value is 50 μg/test tube.

**Q.** Which results are given for COc1ccc(CCC(=O)N2CCCC2C=O)cc1 (centres unmarked) [SUAM1050]?
**A.** No. of amnesic rats/No. of rats tested [1]: 5/10; percentage amnesia [1]: 50%; Avoidance time 24 hrs. later [1]: 198.2 s; Avoidance time 48 hrs. later [1]: 203.5 s

**Q.** For COC(=O)C1CCCN1C(=O)CCc1ccc(OC)cc1 (centres unmarked) [Compound No. 2], which “IC50 (amount of compound to achieve 50% inhibition of prolyl endopeptidase)” value (prolyl endopeptidase) is on record?
**A.** The value was 51 μg/test tube.

**Q.** For O=CC1CCCN1C(=O)CCC(=O)c1ccccc1 (centres unmarked) [SUAM1055], which “preventive effect against scopolamine amnesia (in words)” value [1] is on record?
**A.** Its value is “particularly remarkable effects”.

**Q.** What about the “No. of amnesic rats/No. of rats tested” value [1] of the same molecule?
**A.** Its value is 0/10.

**Q.** What about the percentage amnesia [1] of the same molecule?
**A.** The percentage amnesia was 0%.

**Q.** And the “Avoidance time 24 hrs. later” value [1]?
**A.** Its value is 300.0 s.

**Q.** And the “Avoidance time 48 hrs. later” value [1]?
**A.** Its value is 300.0 s.

**Q.** With COC(=O)C1CCCN1C(=O)CCC(=O)c1ccccc1 (centres unmarked) [compound 28] as the molecule, how does the “IC50 (amount of compound to achieve 50% inhibition of prolyl endopeptidase)” value (prolyl endopeptidase) read?
**A.** Its value is 200 μg/test tube.

**Q.** How did the “IC50 (amount of compound to achieve 50% inhibition of prolyl endopeptidase)” value (prolyl endopeptidase) turn out when COC(=O)C1CCCN1C(=O)C(CCc1ccccc1)C(C)C (centres unmarked) [compound 31] was run?
**A.** The value was greater than 200 μg/test tube.

**Q.** O=CC1CCCN1C(=O)Cc1ccc(Cl)cc1 (centres unmarked) [compound 16] was tested. Which “IC50 (amount of compound to achieve 50% inhibition of prolyl endopeptidase)” value (prolyl endopeptidase) did it give?
**A.** The value was 0.5 μg/test tube.

**Q.** Which “IC50 (amount of compound to achieve 50% inhibition of prolyl endopeptidase)” value (prolyl endopeptidase) does the source give for COc1ccc(CCCC(=O)N2CCCC2C=O)cc1 (centres unmarked) [compound 9] here?
**A.** Its value is 0.05 μg/test tube.

**Q.** How did the “IC50 (amount of compound to achieve 50% inhibition of prolyl endopeptidase)” value (prolyl endopeptidase) turn out when COC(=O)[C@@H]1CCCN1C(=O)CCOc1ccccc1 [Compound No. 19, N-(3-phenoxy)propionyl-proline methyl ester] was run?
**A.** Its value is 60 μg/test tube.

**Q.** Which “IC50 (amount of compound to achieve 50% inhibition of prolyl endopeptidase)” value (prolyl endopeptidase) does the source give for COC(=O)C1CCCN1C(=O)Cc1ccc(Cl)cc1 (centres unmarked) [compound 10] here?
**A.** Its value is 72 μg/test tube.

**Q.** With O=CC1CCCN1C(=O)CCC(c1ccccc1)c1ccccc1 (centres unmarked) [SUAM1090] as the molecule, how does the “No. of amnesic rats/No. of rats tested” value [1] read?
**A.** Its value is 4/10.

**Q.** What about the percentage amnesia [1] of the same molecule?
**A.** Its percentage amnesia is 40%.

**Q.** And the “Avoidance time 24 hrs. later” value [1]?
**A.** The value was 232.8 s.

**Q.** What about the “Avoidance time 48 hrs. later” value [1] of the same molecule?
**A.** The value was 202.36 s.

**Q.** CC(C)C(CCc1ccccc1)C(=O)N1CCCC1C=O (centres unmarked) [compound 33] was tested. Which “IC50 (amount of compound to achieve 50% inhibition of prolyl endopeptidase)” value (prolyl endopeptidase) did it give?
**A.** The value was greater than 5 μg/test tube.

**Q.** COC(=O)C1CCCN1C(=O)CCc1ccc(Cl)cc1 (centres unmarked) [compound 11] was tested. Which “IC50 (amount of compound to achieve 50% inhibition of prolyl endopeptidase)” value (prolyl endopeptidase) did it give?
**A.** Its value is 30 μg/test tube.

**Q.** With COc1ccc(CCC(=O)N2CCCC2C=O)cc1 (centres unmarked) [compound 8] as the molecule, how does the “IC50 (amount of compound to achieve 50% inhibition of prolyl endopeptidase)” value (prolyl endopeptidase) read?
**A.** Its value is 1.0 μg/test tube.

**Q.** With O=CC1CCCN1C(=O)CCCc1ccc(Cl)cc1 (centres unmarked) [compound 18] as the molecule, how does the “IC50 (amount of compound to achieve 50% inhibition of prolyl endopeptidase)” value (prolyl endopeptidase) read?
**A.** Its value is 1.5 μg/test tube.

**Q.** O=CC1CCCN1C(=O)CCC(=O)c1ccccc1 (centres unmarked) [compound 30] was tested. Which “IC50 (amount of compound to achieve 50% inhibition of prolyl endopeptidase)” value (prolyl endopeptidase) did it give?
**A.** Its value is 0.1 μg/test tube.

**Q.** For COC(=O)C1CCCN1C(=O)CCCc1ccc(OC)cc1 (centres unmarked) [compound 3], which “IC50 (amount of compound to achieve 50% inhibition of prolyl endopeptidase)” value (prolyl endopeptidase) is on record?
**A.** The value was 180 μg/test tube.

**Q.** How did the “IC50 (amount of compound to achieve 50% inhibition of prolyl endopeptidase)” value (prolyl endopeptidase) turn out when O=CC1CCCN1C(=O)CCc1ccc(Cl)cc1 (centres unmarked) [compound 17] was run?
**A.** Its value is 1.0 μg/test tube.

**Q.** Which “IC50 (amount of compound to achieve 50% inhibition of prolyl endopeptidase)” value (prolyl endopeptidase) does the source give for CCC(C(=O)N1CCCC1C=O)c1ccccc1 (centres unmarked) [compound 27] here?
**A.** The value was 0.2 μg/test tube.

**Q.** Which results are given for O=CC1CCCN1C(=O)CC(c1ccccc1)c1ccccc1 (centres unmarked) [SUAM1065]?
**A.** preventive effect against scopolamine amnesia (in words) [1]: particularly remarkable effects; No. of amnesic rats/No. of rats tested [1]: 1/10; percentage amnesia [1]: 10%; Avoidance time 24 hrs. later [1]: 284.6 s; Avoidance time 48 hrs. later [1]: 267.2 s

**Q.** How did the “IC50 (amount of compound to achieve 50% inhibition of prolyl endopeptidase)” value (prolyl endopeptidase) turn out when CCC(C(=O)N1CCCC1C(=O)OC)c1ccccc1 (centres unmarked) [compound 25] was run?
**A.** Its value is 510 μg/test tube.

**Q.** With O=CC1CCCN1C(=O)CCOc1ccccc1 (centres unmarked) [Compound No. 21, N-(3-phenoxy)propionyl-prolinal] as the molecule, how does the “IC50 (amount of compound to achieve 50% inhibition of prolyl endopeptidase)” value (prolyl endopeptidase) read?
**A.** The value was 2.5 μg/test tube.

**Q.** For COC(=O)C1CCCN1C(=O)CC(c1ccccc1)c1ccccc1 (centres unmarked) [compound 22], which “IC50 (amount of compound to achieve 50% inhibition of prolyl endopeptidase)” value (prolyl endopeptidase) is on record?
**A.** The value was 250 μg/test tube.

**Q.** Which results are given for COc1ccc(/C=C/C(=O)N2CCCC2C=O)cc1 (centres unmarked) [SUAM1054]?
**A.** No. of amnesic rats/No. of rats tested [1]: 5/10; percentage amnesia [1]: 50%; Avoidance time 24 hrs. later [1]: 204.5 s; Avoidance time 48 hrs. later [1]: 199.7 s

**Q.** COc1ccc(CC(=O)N2CCCC2C=O)cc1 (centres unmarked) [compound 7] was tested. Which “IC50 (amount of compound to achieve 50% inhibition of prolyl endopeptidase)” value (prolyl endopeptidase) did it give?
**A.** The value was 3.0 μg/test tube.

**Q.** COC(=O)C1CCCN1C(=O)Cc1ccc(OC)cc1 (centres unmarked) [Compound No. 1] was tested. Which “IC50 (amount of compound to achieve 50% inhibition of prolyl endopeptidase)” value (prolyl endopeptidase) did it give?
**A.** The value was 80 μg/test tube.

**Q.** Which “No. of amnesic rats/No. of rats tested” value [1] does the source give for CCC(C(=O)N1CCCC1C=O)c1ccccc1 (centres unmarked) [SUAM1066] here?
**A.** Its value is 3/10.

**Q.** And the percentage amnesia [1]?
**A.** The percentage amnesia was 30%.

**Q.** What about the “Avoidance time 24 hrs. later” value [1] of the same molecule?
**A.** The value was 268.4 s.

**Q.** And the “Avoidance time 48 hrs. later” value [1]?
**A.** Its value is 205.4 s.

**Q.** Which “IC50 (amount of compound to achieve 50% inhibition of prolyl endopeptidase)” value (prolyl endopeptidase) does the source give for O=CC1CCCN1C(=O)CCC(c1ccccc1)c1ccccc1 (centres unmarked) [compound 42] here?
**A.** Its value is 0.35 μg/test tube.

**Q.** Which “IC50 (amount of compound to achieve 50% inhibition of prolyl endopeptidase)” value (prolyl endopeptidase) does the source give for O=CC1CCCN1C(=O)CC(c1ccccc1)c1ccccc1 (centres unmarked) [compound 24] here?
**A.** The value was 0.1 μg/test tube.

**Q.** Which “IC50 (amount of compound to achieve 50% inhibition of prolyl endopeptidase)” value (prolyl endopeptidase) does the source give for COC(=O)C1CCCN1C(=O)C(C)CCc1ccccc1 (centres unmarked) [compound 34] here?
**A.** Its value is 80 μg/test tube.

**Q.** With COC(=O)C1CCCN1C(=O)/C=C/c1ccc(OC)cc1 (centres unmarked) [compound 37] as the molecule, how does the “IC50 (amount of compound to achieve 50% inhibition of prolyl endopeptidase)” value (prolyl endopeptidase) read?
**A.** Its value is 80 μg/test tube.

**Q.** For COc1ccc(/C=C/C(=O)N2CCCC2C=O)cc1 (centres unmarked) [compound 39], which “IC50 (amount of compound to achieve 50% inhibition of prolyl endopeptidase)” value (prolyl endopeptidase) is on record?
**A.** The value was 0.2 μg/test tube.

**Q.** How did the “IC50 (amount of compound to achieve 50% inhibition of prolyl endopeptidase)” value (prolyl endopeptidase) turn out when CC(CCc1ccccc1)C(=O)N1CCCC1C=O (centres unmarked) [compound 36] was run?
**A.** Its value is 1.0 μg/test tube.
